Here are results for five molecules from US9095136B2, “2-IODO imidazole-derivatives” (BAYER INTELLECTUAL PROPERTY GMBH, priority 2011, dated 2015).

The subject of one series is Pyrenophora teres. Put plainly: Example R: preventative in vivo test with Pyrenophora teres (net blotch on barley). Particulars: 500 ppm, evaluation 12 days after inoculation. How it is done:
The active compounds tested are prepared by homogenization in a mixture of acetone/Tween/DMSO and then diluted with water to the desired active compound concentration. Barley plants (cultivar “Plaisant”), sown in a 50/50 peat/pozzolana soil substrate and cultivated at 22° C. (12 h)/20° C. (12 h), are treated at the 1-leaf stage (height 10 cm) by spraying with the active compound, prepared as above. As a control, plants are treated with the mixture of acetone/Tween/DMSO/water without the active compound. After 24 hours, the plants are inoculated by spraying the leaves with an aqueous suspension of Pyrenophora teres spores.

For a further series, the system named is Phakopsora pachyrhizi. Put plainly: Example F: Phakopsora test (soya beans)/protective. Conditions: protective, 100 ppm, evaluation 7 days after inoculation. The class given is in vivo. How it is done: (§1) Solvents: 24.5 parts by weight of acetone • 24.5 parts by weight of dimethylacetamide Emulsifier: 1 part by weight of alkylaryl polyglycol ether To produce a suitable preparation of active compound, 1 part by weight of active compound is mixed with the stated amounts of solvent and emulsifier, and the concentrate is diluted with water to the desired concentration. To test for protective activity, young plants are sprayed with the preparation of active compound at the stated application rate.

Series [1] relates to Septoria tritici. Kind of series: Example U: preventative in vivo test with Septoria tritici (leaf blotch disease on wheat). Particulars: 500 ppm, evaluation 21 to 28 days after inoculation. As for the experimental part: The active compounds tested are prepared by homogenization in a mixture of acetone/Tween/DMSO and then diluted with water to the desired active compound concentration. Wheat plants (cultivar “Scipion”), sown in a 50/50 peat/pozzolana soil substrate and cultivated at 22° C. (12 h)/20° C. (12 h), are treated at the 1-leaf stage (height 10 cm) by spraying with the active compound, prepared as above. As a control, plants are treated with the mixture of acetone/Tween/DMSO/water without the active compound. After 24 hours, the plants are inoculated by spraying the leaves with an aqueous suspension of cryogenically preserved Septoria tritici spores.

In series [2] the test system is Puccinia recondita. Kind of series: Example T: preventative in vivo test with Puccinia recondita (brown rust on wheat). Particulars: 500 ppm, evaluation 10 days after inoculation. How it is done:
The active compounds tested are prepared by homogenization in a mixture of acetone/Tween/DMSO and then diluted with water to the desired active compound concentration. Wheat plants (cultivar “Scipion”), sown in a 50/50 peat/pozzolana soil substrate and cultivated at 22° C. (12 h)/20° C. (12 h), are treated at the 1-leaf stage (height 10 cm) by spraying with the active compound, prepared as above. As a control, plants are treated with the mixture of acetone/Tween/DMSO/water without the active compound. After 24 hours, the plants are inoculated by spraying the leaves with an aqueous suspension of Puccinia recondita spores.

The test system of the next series is Alternaria brassicae. Put plainly: Example O: preventative in vivo test with Alternaria brassicae (leaf spot on radish). Conditions: 500 ppm, evaluation 5 days after inoculation. How it is done: The active compounds tested are prepared by homogenization in a mixture of acetone/Tween/DMSO and then diluted with water to the desired active compound concentration. Radish plants (cultivar “Pernod Clair”), sown in a 50/50 peat/pozzolana soil substrate and cultivated at 17° C., are treated at the 2-leaf stage by spraying with the active compound, prepared as above. As a control, plants are treated with the mixture of acetone/Tween/DMSO/water without the active compound. After 24 hours, the plants are inoculated by spraying the leaves with an aqueous suspension of Alternaria brassicae spores.

Series [3] in a line: log P by HPLC on reversed-phase columns (EEC directive 79/831 Annex V.A8). It counts as physicochemical. Conditions: pH 2.7. How it is done:
The log P values were measured according to EEC directive 79/831 Annex V.A8 by HPLC (High Performance Liquid Chromatography) on reversed-phase columns, using the methods below: […] Calibration was carried out using unbranched alkan-2-ones (having from 3 to 16 carbon atoms) with known log P values (the log P values were determined by the retention times using linear interpolation between two successive alkanones). The lambda maX values were determined in the maxima of the chromatographic signals using the UV spectra from 200 nm to 400 nm.

For a further series, the system named is Sphaerotheca fuliginea. Kind of series: Example V: preventative in vivo test with Sphaerotheca fuliginea (powdery mildew on cucumber). Conditions: 500 ppm, evaluation 12 days after inoculation. How it is done:
The active compounds tested are prepared by homogenization in a mixture of acetone/Tween/DMSO and then diluted with water to the desired active compound concentration. Cucumber plants (cultivar “Vert petit de Paris”), sown in a 50/50 peat/pozzolana soil substrate and cultivated at 24° C., are treated at the Z11 cotyledon stage by spraying with the active compound, prepared as above. As a control, plants are treated with the mixture of acetone/Tween/DMSO/water without the active compound. After 24 hours, the plants are inoculated by spraying the leaves with an aqueous suspension of Sphaerotheca fuliginea spores. The inoculated cucumber plants are incubated at about 20° C./25° C. and a relative atmospheric humidity of 60/70%.

The test system of series [4] is Pyricularia oryzae. The class given is in vivo. Conditions: rice, preventative, 500 ppm, evaluation 6 days after inoculation.
Series [5] concerns Uromyces appendiculatus. Kind of series: Example E: Uromyces test (bean)/protective. Particulars: protective, 10 ppm, evaluation 10 days after inoculation. The class given is in vivo. How it is done: as §1, with “rate. […] The plants are then placed in a greenhouse at about 21° C. and a relative atmospheric humidity of about 90%.” for “rate.”
A further series concerns Venturia inaequalis. Kind of series: Example D: Venturia test (apple)/protective. Particulars: protective, 100 ppm, evaluation 10 days after inoculation. It counts as in vivo. How it is done: as §1, with “Solvent:” for “Solvents:”, “rate. […] The plants are then placed in a greenhouse at about 21° C. and a relative atmospheric humidity of about 90%.” for “rate.”
Series [6] concerns Uromyces appendiculatus. Put plainly: Example W: preventative in vivo test with Uromyces appendiculatus (bean rust). Particulars: 500 ppm, evaluation 10 days after inoculation. How it is done:
The active compounds tested are prepared by homogenization in a mixture of acetone/Tween/DMSO and then diluted with water to the desired active compound concentration. Bean plants (cultivar “Saxa”), sown in a 50/50 peat/pozzolana soil substrate and cultivated at 24° C., are treated at the 2-leaf stage (height 9 cm) by spraying with the active compound, prepared as above. As a control, plants are treated with the mixture of acetone/Tween/DMSO/water without the active compound. After 24 hours, the plants are inoculated by spraying the leaves with an aqueous suspension of Uromyces appendiculatus spores.

The subject of series [7] is Septoria tritici. Kind of series: Example Z: Septoria tritici test (wheat)/protective, comparison. The class given is in vivo. Particulars: protective, application rate 250 ppm, evaluation 21 days after inoculation. As for the experimental part:
Solvent: 49 parts by weight of N,N-dimethylacetamide Emulsifier: 1 part by weight of alkylaryl polyglycol ether To produce a suitable preparation of active compound, 1 part by weight of active compound or active compound combination is mixed with the stated amounts of solvent and emulsifier, and the concentrate is diluted with water to the desired concentration. To test for protective activity, young plants are sprayed with the preparation of active compound or active compound combination at the stated application rate. After the spray coating has dried on, the plants are sprayed with a spore suspension of Septoria tritici.

The subject of series [8] is Pyricularia oryzae. The class given is in vivo. Conditions: rice, protective, 500 ppm, evaluation 7 days after inoculation.
Series [9] has as its system Puccinia recondita. Put plainly: Example X: Puccinia test (wheat)/protective, comparison. The class given is in vivo. Particulars: protective, application rate 500 ppm, evaluation 7-9 days after inoculation. As for the experimental part: Solvent: 49 parts by weight of N,N-dimethylformamide Emulsifier: 1 part by weight of alkylaryl polyglycol ether To produce a suitable preparation of active compound, 1 part by weight of active compound is mixed with the stated amounts of solvent and emulsifier, and the concentrate is diluted with water to the desired concentration. To test for protective activity, young plants are sprayed with the preparation of active compound at the stated application rate. One day after this treatment, the plants are inoculated with an aqueous spore suspension of Puccinia recondita.

Series [10] has as its system Uromyces appendiculatus. Kind of series: Example Y: Uromyces test (beans)/protective, comparison. It counts as in vivo. Conditions: protective, application rate 10 ppm, evaluation 10 days after inoculation. How it is done: as §1, with “rate. […] The plants are then placed in a greenhouse at about 21° C. and a relative atmospheric humidity of about 90%.” for “rate.”

Marks after values point to notes of the source that are not given here.

Turning to `Fc1ccc(C2(Cn3ccnc3I)OC2c2ccccc2Cl)cc1` (stereo not shown) [Example 8], the Efficacy % with Pyrenophora teres came to 79%; in the series with Septoria tritici [1], 100%; in the series on Puccinia recondita [2], 97%; in the series with Alternaria brassicae, 88%; in the series with Sphaerotheca fuliginea, 100%; in the series on Pyricularia oryzae [4] it was 75%. The molecule also came in with an Efficacy % in the series on Uromyces appendiculatus [6] of 100%. Also, the figures for the Eff. % with Phakopsora pachyrhizi, in the series with Uromyces appendiculatus [5] and in the series on Venturia inaequalis were 99%, 100% and 100%, respectively. In addition, the logP in series [3] was 3.09^[a].

On to `OC(Cc1ccc(F)cc1)(Cn1ccnc1)C1(Cl)CC1` (stereo not shown) [drawing 21, reference compound], for which the Efficacy in % in the series with Septoria tritici [7] came out at 43%.

Turning to `CC(C)(C)C(O)(CCc1ccc(Cl)cc1)Cn1ccnc1I` (stereo not shown) [Example 4], the Eff. % in the series with Pyricularia oryzae [8] is listed as 80%. In the series with Puccinia recondita [9], the Efficacy in % is 95%.

In the case of `CC(C)(C)C(O)(CCc1ccc(Cl)cc1)Cn1ccnc1` (stereo not shown) [reference compound], the Efficacy in % in the series with Puccinia recondita [9] came out at 70%.

As to `OC(Cc1ccc(F)cc1)(Cn1ccnc1)C1(Cl)CC1` (stereo not shown) [drawing 19, reference compound], the Efficacy in % with Uromyces appendiculatus [10] is listed as 65%.
